Legend:
[1] = test system: 22Rv1 cells; experiment: Cell cycle distribution by propidium iodide flow cytometry; type: cell-based, human; details: 48 h
Experimental: The cell cycle of treated cells was examined by flow cytometry after cellular staining with propidium iodide. 5×10^5 cells were seeded into 6-well multidishes with 10% FBS culture medium for 48 h. […] Cells were trypsinized thereafter, washed twice with cold PBS, and centrifuged. The pellet was suspended in cold PBS and 1 mL of 70% ethanol at 4° C. overnight, washed twice with cold PBS, and digested with RNase (100 μg/mL final concentration) and stained with propidium iodide (10 μg/mL final concentration) for 30 min and analyzed by flow cytometry (EPICS XL-MCL, Beckman Coulter, Inc., Fullerton, Calif.).

[2] = target: T1, AR-LBD interaction with the full-length AR (Homo sapiens, UniProt P10275); experiment: Two-hybrid interaction assay in PC-3 cells; type: cell-based; details: 20 h
T1 construct: expressed in transfected cells; host or cells: PC-3
T1 sequence (P10275 669-900 limits assumed): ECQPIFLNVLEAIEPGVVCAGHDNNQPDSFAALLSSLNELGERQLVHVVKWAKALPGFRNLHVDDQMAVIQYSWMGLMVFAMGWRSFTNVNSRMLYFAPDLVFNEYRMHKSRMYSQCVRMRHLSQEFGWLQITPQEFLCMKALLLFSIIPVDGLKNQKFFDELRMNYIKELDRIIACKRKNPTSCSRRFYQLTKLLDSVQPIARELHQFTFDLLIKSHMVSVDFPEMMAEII
Experimental: Second, the AR-LBD interaction with the full-length AR can be detected by a two-hybrid interaction assay in PC-3 cells through transfection of GBD-AR-LBD and AR fused with the VP16 activation domain (AR-VP16). […] The transfected cells were treated with vehicle or various compounds for another 20 h. Luciferase activity was measured using the luciferase reporter gene assay system (Promega, Madison, Wis.) and normalized against respective Renilla luciferase values.

[3] = test system: PC-3 cells; experiment: Western blot of G1-associated cyclins, CDKs, CDK inhibitors and Rb phosphorylation; type: cell-based, human; details: PC-3, compared with LNCaP
Source text: (§1) The molecular mechanisms for HDHS-induced G0-G1 cell cycle arrest were further assessed by the expression of the cyclins and CDKs that operate in the G1 phase in PCa cells (Malumbres M et al., Nat Rev Cancer 2001; 1:222-31; Massague J. Nature 2004; 432:298-306).

[4] = test system: LNCaP cells; experiment: as above; type: cell-based, human; details: 24 h
Source text: as §1

[5] = test system: LNCaP cells; experiment: Morphology of treated cells; details: 10 to 50 μM, 48 h
Source text: (§3) The long-term effect of HDHS on the malignant growth of AR-dependent (22Rv1, and LNCaP) and AR-independent (PC-3) PCa cells was examined by colony-forming growth assay.

[6] = test system: PC-3 cells; experiment: MTT cell viability; type: cell-based, human; details: PC-3, concentrations above 10 μM, 48 h, versus LNCaP and 22Rv1
Experimental: (§2) The effects of HDHS on cell viability in various PCa cell lines including androgen-dependent LNCaP, androgen-responsive 22Rv1 cells, and androgen-independent PC-3 cells were tested and compared with untransformed fibroblast NIH-3T3 cells. PCa or NIH-3T3 cells (1×10^4 cells) were seeded into 96-well microtiter plates with 10% FBS culture medium. After 24 h, cells were incubated in 10% FBS medium containing different concentrations of HDHS or equivalent amounts of vehicle alone as control for 48 h. Cell viability was then determined by MTT assay, which quantitatively measures the metabolic activity of living cells.

[7] = test system: 22Rv1 cells; experiment: MTT cell viability; type: cell-based, human; details: 22Rv1, concentrations above 10 μM, 48 h
Experimental: as §2

[8] = test system: LNCaP cells; experiment: MTT cell viability; type: cell-based, human; details: concentrations above 10 μM, 48 h
Experimental: as §2

[9] = test system: PSA and AR expression in LNCaP cells; experiment: Western blot of PSA and AR expression in DHT-treated LNCaP cells; type: cell-based, human; details: 10 nM DHT, 24 h
Source text: The AR suppressing activity of HDHS was also examined in LNCaP cells, another androgen-dependent PCa cell line. […] Expression of endogenous PSA in treated cells, as a measure of cellular response to androgen, and AR activity were detected by western blot with anti-PSA and anti-AR antibodies. Protein levels (relative to actin; listed below the first two blots) were quantitatively analyzed with Chemigenius (Biolabo). The blots shown in FIG. 2B are representative of three independent experiments.

[10] = target: T2, androgen receptor (Homo sapiens, UniProt P10275); experiment: PSA promoter luciferase reporter assay in 103E cells (AR transcriptional activity)
T2 sequence (P10275 with tags, fused parts or gaps DUP590-628/H875Y): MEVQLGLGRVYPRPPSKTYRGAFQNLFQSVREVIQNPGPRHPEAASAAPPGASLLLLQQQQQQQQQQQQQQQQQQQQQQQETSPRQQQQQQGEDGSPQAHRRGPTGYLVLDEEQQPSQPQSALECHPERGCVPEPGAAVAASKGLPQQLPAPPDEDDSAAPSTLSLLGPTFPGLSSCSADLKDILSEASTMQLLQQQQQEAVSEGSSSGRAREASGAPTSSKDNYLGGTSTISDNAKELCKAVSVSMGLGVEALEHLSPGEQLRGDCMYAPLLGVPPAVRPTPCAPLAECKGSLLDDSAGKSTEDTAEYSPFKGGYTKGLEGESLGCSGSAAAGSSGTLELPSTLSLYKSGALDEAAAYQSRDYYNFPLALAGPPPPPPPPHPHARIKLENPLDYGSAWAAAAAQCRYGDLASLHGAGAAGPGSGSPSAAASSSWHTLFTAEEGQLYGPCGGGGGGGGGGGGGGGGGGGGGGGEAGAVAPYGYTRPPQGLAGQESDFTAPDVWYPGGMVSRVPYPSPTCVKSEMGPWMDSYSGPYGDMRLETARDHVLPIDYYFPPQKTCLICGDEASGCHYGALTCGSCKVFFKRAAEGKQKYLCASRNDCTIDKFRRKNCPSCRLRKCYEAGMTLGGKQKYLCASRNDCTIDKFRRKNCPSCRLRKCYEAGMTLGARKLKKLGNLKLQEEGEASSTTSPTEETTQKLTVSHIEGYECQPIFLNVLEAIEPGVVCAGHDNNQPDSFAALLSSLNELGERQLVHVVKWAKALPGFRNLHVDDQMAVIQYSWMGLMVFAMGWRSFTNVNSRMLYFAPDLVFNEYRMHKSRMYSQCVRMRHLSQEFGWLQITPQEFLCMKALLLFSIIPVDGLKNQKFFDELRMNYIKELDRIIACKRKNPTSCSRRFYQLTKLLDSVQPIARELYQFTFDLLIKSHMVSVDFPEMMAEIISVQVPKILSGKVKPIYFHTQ
Experimental: PC-3 and NIH-3T3 were cultured in DMEM (Hyclone) supplemented with 10% FBS. Cultures were maintained in a humidified incubator at 37° C. in 5% CO2/air.
Cells were treated with various compounds for a period of 20 h and luciferase activity was measured using a luciferase reporter gene assay system (Promega).

[11] = test system: 22Rv1 cells; experiment: Morphology of treated cells; details: 22Rv1, 10 to 50 μM, 48 h
Source text: as §3

[12] = test system: 22Rv1 cells; experiment: Apoptosis by nucleosome release (cytoplasmic DNA fragmentation); type: cell-based, human; details: 22Rv1, 5-10 μM, 24 h
Experimental: A, Apoptosis of cytoplasmic DNA fragmentation in different cell lines treated with vehicle or indicated concentrations of HDHS for 24 h. Difference between the indicated pair of treatments was tested for statistic significance as marked. *, P≦0.05; **, P≦0.01.
In light of the increase of sub-G1 populations by HDHS, apoptosis in treated cells was further analyzed via measurement of nucleosome release in PCa cells.

CC(C)c1cc2c(cc1O)[C@@]1(C)CCCC(C)(C)C1=C(O)C2=O [Compound 2, 6,12-dihydroxyabieta-5,8,11,13-tetraen-7-one]
G0-G1 phase cell population ([1]; 22Rv1, 2.5 μM): 54.5 ± 2.5 % | G2-M phase cell population ([1]; 22Rv1, 2.5 μM): 24.8 ± 2.4 % | S phase cell population ([1]; 22Rv1, 2.5 μM): 11.2 ± 1.9 % | Sub-G1 phase cell population ([1]; 22Rv1, 2.5 μM): 2.2 ± 0.8 % | G0-G1 phase cell population ([1]; 22Rv1, 5 μM): 57.9 ± 1.9 % | G2-M phase cell population ([1]; 22Rv1, 5 μM): 23.7 ± 2.7 % | S phase cell population ([1]; 22Rv1, 5 μM): 8.0 ± 1.4 % | Sub-G1 phase cell population ([1]; 22Rv1, 5 μM): 3.8 ± 0.9 % | G0-G1 phase cell population ([1]; 22Rv1, 10 μM): 48.4 ± 2.9 % | G2-M phase cell population ([1]; 22Rv1, 10 μM): 24.5 ± 2.0 % | S phase cell population ([1]; 22Rv1, 10 μM): 5.7 ± 2.2 % | Sub-G1 phase cell population ([1]; 22Rv1, 10 μM): 14.4 ± 3.7 % | effect on DHT-induced two-hybrid interaction [2]: competitively inhibited | changes in cyclins, CDKs, p21, p27 and Rb phosphorylation [3]: at a lower magnitude than in LNCaP cells | protein expression of CDK inhibitors p21 and p27 ([4]; 10 μM): increased | cyclins D1 and E protein [4]: concentration-dependent decrease | phosphorylation of Rb [4]: markedly decreased | protein levels of CDK4, CDK6, and CDK2 [4]: decreased | morphology of treated cells [5]: cell rounding and surface blebbing | cell viability (MTT) [6]: far less pronounced | cell viability (MTT) [7]: strongly reduced cell viability | cell viability (MTT) [8]: strongly reduced cell viability | AR activation of PSA expression by DHT ([9]; 10 μM): completely abolished | protein levels of AR ([9]; 10 μM): fell to basal level | protein levels of AR ([9]; 2.5 or 5 μM): not significantly altered | concentration achieving complete inhibition of PSA promoter activity ([10]; 10 nmol/L DHT, 24 h): greater than 10 μM | Inhibitionmax (%) of AR activity ([10]; maximal inhibition at 10 μM): 101 ± 4% (10 μM) | IC50 ([10]; read-out: IC50 for inhibiting DHT-induced PSA-luciferase reporter, cotreated with 10 nmol/L DHT, 24 h): 4.8 µM | morphology of treated cells [11]: cell rounding and surface blebbing | apoptosis (nucleosome release) [12]: significantly induced
